Experimental data from ChEMBL document CHEMBL1201862, “PubChem BioAssay data set” (2004).
Active and inactive are the calls of the source.

Assays:
Cannabinoid receptor 1 [1] = molecular target: T1, Cannabinoid receptor 1 (Homo sapiens, UniProt P21554); assay: SAR analysis of antagonists of the Cannabinoid Receptor 1 using an Image-Based Assay - Set 2. [Related pubchem assays (depositor defined):AID2013, AID2026]; format: functional
INS1 = assay: INS-1E survival protection against cytokine death – cell-based, luminescence, retest, dose response (AID 449756); format: functional; conditions: Rattus norvegicus;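 also: cell death triggered by IL-1 beta plus TNF-alpha plus IFN-gamma mixture; protective hits raise ATP signal compared with cytokine alone wells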
Cannabinoid receptor 2 [2] = molecular target: T2, Cannabinoid receptor 2 (Homo sapiens, UniProt P34972); assay: SAR analysis of agonists of the Cannabinoid Receptor 2 using an Image-Based Assay - Set 3. [Related pubchem assays (depositor defined):AID2013, AID2026]; format: functional
[3] = molecular target: T3, G-protein coupled receptor 35 (Homo sapiens, UniProt Q9HC97); assay: SAR analysis of Antagonists of the GPR35 Receptor using an Image-Based Assay - Set 3. [Related pubchem assays (depositor defined):AID2013, AID2026]; format: functional
Cannabinoid receptor 2 [4] = molecular target: T2, Cannabinoid receptor 2; assay: SAR analysis of antagonists of the Cannabinoid Receptor 2 using an Image-Based Assay. [Related pubchem assays (depositor defined):AID2013, AID2026]; format: functional
[5] = molecular target: T4, G-protein coupled receptor 55 (Homo sapiens, UniProt Q9Y2T6); assay: blockade of LPI-induced GPR55 arrestin translocation – imaging, U2OS, beta-arrestin-GFP, LPI agonist, set 2, SAR follow-up (AID 2820); format: functional
Cannabinoid receptor 1 [6] = molecular target: T1, Cannabinoid receptor 1; assay: SAR analysis of agonists of the Cannabinoid Receptor 1 using an Image-Based Assay - Set 2. [Related pubchem assays (depositor defined):AID2013, AID2026]; format: functional
[7] = molecular target: T4, G-protein coupled receptor 55; assay: SAR Analysis of Selective Antagonists of GPR55 using an Image-Based Assay - Set 4. [Related pubchem assays (depositor defined):AID2013, AID2026]; format: functional
[8] = molecular target: T3, G-protein coupled receptor 35; assay: SAR analysis of Agonists of the GPR35 Receptor using an Image-Based Assay - Set 2. [Related pubchem assays (depositor defined):AID2013, AID2026]; format: functional
Cannabinoid receptor 1 [9] = molecular target: T1, Cannabinoid receptor 1; assay: SAR analysis of antagonists of the Cannabinoid Receptor 1 using an Image-Based Assay - Set 4. [Related pubchem assays (depositor defined):AID2013, AID2026]; format: functional
Cannabinoid receptor 2 [10] = molecular target: T2, Cannabinoid receptor 2; assay: SAR analysis of agonists of the Cannabinoid Receptor 2 using an Image-Based Assay. [Related pubchem assays (depositor defined):AID2013, AID2026]; format: functional
[11] = loss of viability in HepG2 cells – cell-based, CellTiter-Glo, cherry-picked, cytotoxicity control for Shn3 inhibitor project, dose response (AID 624134); format: functional
[12] = molecular target: T4, G-protein coupled receptor 55; assay: inhibition of LPI-stimulated GPR55 beta-arrestin translocation – imaging, U2OS, beta-arrestin-GFP, LPI agonist, primary screen (AID 2013); format: functional;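 also: antagonist potency measured as reduced agonist-driven arrestin aggregation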
Cannabinoid receptor 2 [13] = molecular target: T2, Cannabinoid receptor 2; assay: SAR analysis of antagonists of the Cannabinoid Receptor 2 using an Image-Based Assay - Set 3. [Related pubchem assays (depositor defined):AID2013, AID2026]; format: functional
[14] = reduction of Shn3 3'UTR-driven luciferase in osteoblasts – cell-based, Clone20 osteoblasts, firefly luciferase, cherry-picked, dose response (AID 624132); format: functional;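 also: firefly luciferase luminescence from reporter carrying the Shn3 3'UTR in osteoblasts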
[15] = non-specific 3'UTR reporter inhibition in Clone20-Shn3RL – cell-based, Renilla luciferase, cherry-picked, counter-screen for Shn3 inhibitor project, dose response (AID 624133); format: functional
[16] = molecular target: T5, E3 ubiquitin-protein ligase XIAP (Homo sapiens, UniProt P98170); assay: SAR analysis of Antagonists of IAP-family anti-apoptotic proteins. [Related pubchem assays (depositor defined):AID1018, AID1449, AID1513, AID1514, AID1638]
[17] = molecular target: T5, E3 ubiquitin-protein ligase XIAP; assay: SAR analysis of Antagonists of XIAP-Bir3 domain of IAP-family anti-apoptotic proteins. [Related pubchem assays (depositor defined):AID1018, AID1449, AID1513, AID1514, AID1638]
[18] = molecular target: Intestinal-type alkaline phosphatase (Homo sapiens, UniProt P09923); assay: activation of human intestinal alkaline phosphatase – biochemical, dose response (AID 488873); format: functional
[19] = molecular target: T6, Alkaline phosphatase, tissue-nonspecific isozyme (Homo sapiens, UniProt P05186); assay: activation of tissue-nonspecific alkaline phosphatase – biochemical, TNAP isozyme, mouse IAP uHTS hits, selectivity assay for mouse IAP activator project, dose response (AID 488880); format: functional
T6 sequence (P05186 whole entry): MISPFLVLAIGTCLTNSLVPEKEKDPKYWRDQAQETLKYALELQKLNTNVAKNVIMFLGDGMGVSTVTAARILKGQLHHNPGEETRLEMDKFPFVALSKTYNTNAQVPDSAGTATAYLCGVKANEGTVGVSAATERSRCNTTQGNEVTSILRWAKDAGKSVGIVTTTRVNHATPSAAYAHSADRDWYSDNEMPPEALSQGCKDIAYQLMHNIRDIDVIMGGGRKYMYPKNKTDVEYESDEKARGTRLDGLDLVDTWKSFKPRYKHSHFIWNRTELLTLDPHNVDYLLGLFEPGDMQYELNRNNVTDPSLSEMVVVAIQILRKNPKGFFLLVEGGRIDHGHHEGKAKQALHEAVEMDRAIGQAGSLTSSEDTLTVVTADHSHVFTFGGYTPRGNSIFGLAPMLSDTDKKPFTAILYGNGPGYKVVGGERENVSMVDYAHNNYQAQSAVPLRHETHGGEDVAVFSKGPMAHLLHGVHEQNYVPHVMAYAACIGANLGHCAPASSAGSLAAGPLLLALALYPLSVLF

[20] = molecular target: Intestinal-type alkaline phosphatase (Mus musculus, UniProt P24822); assay: mouse intestinal alkaline phosphatase activators, dose response, biochemical, luminescence, uHTS hits (AID 488783); format: functional
Albumin = Albumin (Bos taurus, UniProt P02769); assay: Counterscreen for inhibitors of T-cell receptor (TCR)-CD3 interaction: Fluorescence-based biochemical high throughput dose response assay to identify inhibitors of T-cell receptor (TCR)-CD3 interaction using a TAMRA-labeled BSA probe.; format: functional
[21] = Counterscreen for AddAB inhibitors: absorbance-based bacterial cell-based high throughput dose response assay for inhibitors of bacterial viability. [Related pubchem assays (depositor defined):AID435030, AID449728, AID449731, AID488942, AID488955, AID488956]; format: functional
SUMO-activating enzyme = SUMO-activating enzyme (Homo sapiens, UniProt Q9UBT2); assay: blockers of UBC9-mediated SUMO conjugation – biochemical, AlphaScreen, SUMOylation inhibitor project, confirmation (AID 2018); format: functional
Exodeoxyribonuclease V = molecular target: T7, Exodeoxyribonuclease V (Escherichia coli (strain K12), UniProt P04993+P07648+P08394); assay: RecBCD inhibition via phage-restricted bacterial growth – absorbance, V66 E. coli, mutant T4 phage, counter-screen for AddAB inhibitor project, dose response (AID 492957); format: functional, cell-based, Escherichia coli str. K-12 substr. MG1655
T7 sequence (P04993 whole entry): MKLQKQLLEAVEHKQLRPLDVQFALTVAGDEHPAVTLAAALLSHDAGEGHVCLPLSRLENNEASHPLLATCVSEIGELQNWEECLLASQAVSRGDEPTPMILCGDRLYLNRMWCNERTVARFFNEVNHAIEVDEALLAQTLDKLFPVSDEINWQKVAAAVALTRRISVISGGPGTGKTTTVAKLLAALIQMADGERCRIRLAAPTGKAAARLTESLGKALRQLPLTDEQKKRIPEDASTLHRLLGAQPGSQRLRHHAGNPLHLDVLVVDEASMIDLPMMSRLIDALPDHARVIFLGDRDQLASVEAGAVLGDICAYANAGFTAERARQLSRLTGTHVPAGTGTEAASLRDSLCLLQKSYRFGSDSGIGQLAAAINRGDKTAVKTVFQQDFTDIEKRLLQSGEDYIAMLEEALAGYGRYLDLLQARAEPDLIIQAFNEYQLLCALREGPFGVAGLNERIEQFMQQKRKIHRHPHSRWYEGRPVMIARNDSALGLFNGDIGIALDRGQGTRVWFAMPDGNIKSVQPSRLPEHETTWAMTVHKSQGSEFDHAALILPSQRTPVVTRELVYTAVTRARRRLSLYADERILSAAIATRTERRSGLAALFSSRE
T7 sequence (P07648 whole entry): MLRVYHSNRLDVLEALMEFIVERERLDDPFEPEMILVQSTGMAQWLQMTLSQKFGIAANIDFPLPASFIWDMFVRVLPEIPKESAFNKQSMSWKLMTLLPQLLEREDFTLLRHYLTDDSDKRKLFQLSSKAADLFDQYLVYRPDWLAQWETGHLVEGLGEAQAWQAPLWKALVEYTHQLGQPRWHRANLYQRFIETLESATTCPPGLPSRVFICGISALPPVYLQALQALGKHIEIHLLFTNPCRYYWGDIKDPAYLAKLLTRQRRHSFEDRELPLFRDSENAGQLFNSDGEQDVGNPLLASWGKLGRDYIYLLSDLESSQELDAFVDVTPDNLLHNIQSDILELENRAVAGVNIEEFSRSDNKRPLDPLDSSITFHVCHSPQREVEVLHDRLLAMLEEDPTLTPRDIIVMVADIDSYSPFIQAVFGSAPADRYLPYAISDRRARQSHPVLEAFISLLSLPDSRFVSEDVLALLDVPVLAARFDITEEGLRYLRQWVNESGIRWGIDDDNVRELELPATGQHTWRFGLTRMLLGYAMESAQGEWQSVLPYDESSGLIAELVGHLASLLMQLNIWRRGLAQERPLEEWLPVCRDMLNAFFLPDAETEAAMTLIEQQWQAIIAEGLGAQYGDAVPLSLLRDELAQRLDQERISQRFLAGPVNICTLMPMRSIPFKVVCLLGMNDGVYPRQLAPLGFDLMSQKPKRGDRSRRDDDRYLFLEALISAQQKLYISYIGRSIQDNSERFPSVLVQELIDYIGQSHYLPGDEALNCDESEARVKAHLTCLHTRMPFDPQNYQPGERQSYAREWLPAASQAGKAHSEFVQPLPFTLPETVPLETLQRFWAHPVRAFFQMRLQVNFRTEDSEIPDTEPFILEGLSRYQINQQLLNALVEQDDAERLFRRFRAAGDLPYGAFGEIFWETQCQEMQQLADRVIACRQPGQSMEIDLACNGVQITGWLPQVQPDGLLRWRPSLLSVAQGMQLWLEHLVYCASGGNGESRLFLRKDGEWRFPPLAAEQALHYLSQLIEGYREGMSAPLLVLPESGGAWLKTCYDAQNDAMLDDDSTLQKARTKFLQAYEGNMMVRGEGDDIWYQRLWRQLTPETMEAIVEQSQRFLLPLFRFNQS
T7 sequence (P08394 whole entry): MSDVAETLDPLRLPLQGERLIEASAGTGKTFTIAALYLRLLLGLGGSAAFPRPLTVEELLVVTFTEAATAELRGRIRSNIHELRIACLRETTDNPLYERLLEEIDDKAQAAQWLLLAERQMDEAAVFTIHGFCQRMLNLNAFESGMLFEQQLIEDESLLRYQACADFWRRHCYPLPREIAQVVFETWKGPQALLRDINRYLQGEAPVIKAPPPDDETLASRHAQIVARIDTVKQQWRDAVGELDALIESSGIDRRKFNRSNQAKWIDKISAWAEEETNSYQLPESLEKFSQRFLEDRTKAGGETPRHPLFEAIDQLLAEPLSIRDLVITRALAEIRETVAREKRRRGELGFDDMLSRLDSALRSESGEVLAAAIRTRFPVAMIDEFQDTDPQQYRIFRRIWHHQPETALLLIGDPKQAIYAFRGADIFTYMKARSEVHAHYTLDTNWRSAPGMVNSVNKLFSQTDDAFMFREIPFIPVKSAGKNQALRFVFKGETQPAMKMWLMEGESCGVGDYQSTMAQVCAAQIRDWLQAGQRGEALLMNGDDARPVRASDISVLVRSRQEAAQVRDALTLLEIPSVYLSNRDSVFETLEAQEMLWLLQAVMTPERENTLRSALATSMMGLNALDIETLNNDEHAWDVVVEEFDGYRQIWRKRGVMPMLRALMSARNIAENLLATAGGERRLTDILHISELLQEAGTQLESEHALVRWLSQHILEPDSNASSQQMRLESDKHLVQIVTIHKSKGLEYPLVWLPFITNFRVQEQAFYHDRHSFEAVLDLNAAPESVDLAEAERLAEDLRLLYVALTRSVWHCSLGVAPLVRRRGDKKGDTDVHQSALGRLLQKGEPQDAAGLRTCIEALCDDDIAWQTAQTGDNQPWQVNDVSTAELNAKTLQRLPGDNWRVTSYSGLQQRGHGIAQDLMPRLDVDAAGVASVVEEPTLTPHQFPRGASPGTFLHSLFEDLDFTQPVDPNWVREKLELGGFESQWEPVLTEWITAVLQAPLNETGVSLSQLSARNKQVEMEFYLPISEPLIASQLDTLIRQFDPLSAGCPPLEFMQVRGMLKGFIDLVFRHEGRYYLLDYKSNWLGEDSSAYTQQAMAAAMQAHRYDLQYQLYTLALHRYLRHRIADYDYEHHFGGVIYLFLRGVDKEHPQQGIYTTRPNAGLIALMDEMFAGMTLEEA

T4 sequence (Q9Y2T6 whole entry): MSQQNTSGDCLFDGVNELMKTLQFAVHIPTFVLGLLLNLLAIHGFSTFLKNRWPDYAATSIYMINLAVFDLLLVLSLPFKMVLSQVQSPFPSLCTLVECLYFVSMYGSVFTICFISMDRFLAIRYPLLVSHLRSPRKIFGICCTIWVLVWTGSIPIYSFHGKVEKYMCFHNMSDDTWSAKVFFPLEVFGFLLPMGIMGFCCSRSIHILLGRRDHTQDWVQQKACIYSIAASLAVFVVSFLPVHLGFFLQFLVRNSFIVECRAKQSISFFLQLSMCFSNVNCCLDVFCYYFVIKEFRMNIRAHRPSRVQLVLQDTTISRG
T2 sequence (P34972 whole entry): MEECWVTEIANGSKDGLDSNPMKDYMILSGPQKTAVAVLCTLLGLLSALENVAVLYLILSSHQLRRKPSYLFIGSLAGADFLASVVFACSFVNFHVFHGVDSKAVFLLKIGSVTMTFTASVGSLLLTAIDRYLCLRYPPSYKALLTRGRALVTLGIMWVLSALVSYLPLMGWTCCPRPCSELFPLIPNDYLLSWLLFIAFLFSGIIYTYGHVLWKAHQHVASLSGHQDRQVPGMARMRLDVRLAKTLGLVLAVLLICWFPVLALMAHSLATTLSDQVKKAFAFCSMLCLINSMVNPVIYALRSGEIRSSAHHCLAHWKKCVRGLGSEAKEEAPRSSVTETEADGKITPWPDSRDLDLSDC
T1 sequence (P21554 whole entry): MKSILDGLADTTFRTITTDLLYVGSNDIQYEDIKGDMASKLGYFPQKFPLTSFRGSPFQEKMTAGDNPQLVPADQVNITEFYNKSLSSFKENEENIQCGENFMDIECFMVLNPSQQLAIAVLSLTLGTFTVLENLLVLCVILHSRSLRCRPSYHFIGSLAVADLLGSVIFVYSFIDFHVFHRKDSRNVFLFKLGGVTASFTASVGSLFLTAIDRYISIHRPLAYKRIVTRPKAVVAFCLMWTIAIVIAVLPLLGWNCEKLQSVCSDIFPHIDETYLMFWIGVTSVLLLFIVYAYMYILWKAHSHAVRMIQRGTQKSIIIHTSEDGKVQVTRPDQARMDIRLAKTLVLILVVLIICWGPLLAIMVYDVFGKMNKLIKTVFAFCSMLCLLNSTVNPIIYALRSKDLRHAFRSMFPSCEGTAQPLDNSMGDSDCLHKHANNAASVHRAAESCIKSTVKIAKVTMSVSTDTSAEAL
T5 sequence (P98170 whole entry, the tested form may be a part): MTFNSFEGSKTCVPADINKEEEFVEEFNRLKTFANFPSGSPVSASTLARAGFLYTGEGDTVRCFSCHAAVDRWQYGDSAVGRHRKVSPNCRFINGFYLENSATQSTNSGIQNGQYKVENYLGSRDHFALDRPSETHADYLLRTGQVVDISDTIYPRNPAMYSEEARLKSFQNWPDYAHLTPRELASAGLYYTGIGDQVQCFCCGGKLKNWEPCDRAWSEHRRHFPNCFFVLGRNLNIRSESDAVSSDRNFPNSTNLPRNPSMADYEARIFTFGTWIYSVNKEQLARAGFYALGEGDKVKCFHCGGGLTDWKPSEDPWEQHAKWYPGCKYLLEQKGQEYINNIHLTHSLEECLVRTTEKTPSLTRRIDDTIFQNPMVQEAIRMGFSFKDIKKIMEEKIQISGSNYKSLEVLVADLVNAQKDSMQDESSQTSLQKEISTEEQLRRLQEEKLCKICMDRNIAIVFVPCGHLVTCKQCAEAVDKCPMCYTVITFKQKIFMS
T3 sequence (Q9HC97 whole entry): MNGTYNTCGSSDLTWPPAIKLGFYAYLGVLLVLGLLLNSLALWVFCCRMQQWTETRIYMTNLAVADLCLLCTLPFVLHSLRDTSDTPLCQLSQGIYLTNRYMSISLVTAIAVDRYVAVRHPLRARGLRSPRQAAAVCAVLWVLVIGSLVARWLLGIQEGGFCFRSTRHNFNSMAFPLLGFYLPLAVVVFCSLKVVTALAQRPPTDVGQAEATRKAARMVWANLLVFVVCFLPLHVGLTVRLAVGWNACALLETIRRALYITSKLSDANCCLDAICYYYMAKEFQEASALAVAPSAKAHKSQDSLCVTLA
Sequence of Albumin (P02769 whole entry): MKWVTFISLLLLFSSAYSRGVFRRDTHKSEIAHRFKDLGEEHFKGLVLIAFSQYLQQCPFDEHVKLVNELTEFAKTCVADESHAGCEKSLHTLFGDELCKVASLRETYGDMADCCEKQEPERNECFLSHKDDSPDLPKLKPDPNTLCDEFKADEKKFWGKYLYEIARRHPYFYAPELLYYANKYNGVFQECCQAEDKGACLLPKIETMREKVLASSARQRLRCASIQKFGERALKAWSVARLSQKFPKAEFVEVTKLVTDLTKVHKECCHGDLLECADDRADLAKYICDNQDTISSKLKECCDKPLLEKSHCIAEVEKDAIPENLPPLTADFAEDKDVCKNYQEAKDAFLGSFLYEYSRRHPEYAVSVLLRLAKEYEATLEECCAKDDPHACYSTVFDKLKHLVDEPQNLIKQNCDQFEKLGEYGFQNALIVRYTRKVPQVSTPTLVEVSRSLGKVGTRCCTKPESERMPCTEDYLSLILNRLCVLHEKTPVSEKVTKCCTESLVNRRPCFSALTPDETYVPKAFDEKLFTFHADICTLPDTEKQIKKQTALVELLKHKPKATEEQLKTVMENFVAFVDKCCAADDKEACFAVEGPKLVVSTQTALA
Sequence of SUMO-activating enzyme (Q9UBE0 whole entry): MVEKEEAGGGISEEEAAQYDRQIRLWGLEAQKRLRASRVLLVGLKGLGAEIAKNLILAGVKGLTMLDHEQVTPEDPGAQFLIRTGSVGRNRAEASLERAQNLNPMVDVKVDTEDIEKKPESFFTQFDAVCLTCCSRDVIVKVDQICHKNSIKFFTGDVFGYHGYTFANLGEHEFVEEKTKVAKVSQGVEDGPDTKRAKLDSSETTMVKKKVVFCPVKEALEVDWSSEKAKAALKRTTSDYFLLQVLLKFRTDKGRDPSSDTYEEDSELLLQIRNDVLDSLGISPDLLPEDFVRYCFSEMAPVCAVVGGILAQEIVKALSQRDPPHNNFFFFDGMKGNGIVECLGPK
Sequence of SUMO-activating enzyme (Q9UBT2 whole entry): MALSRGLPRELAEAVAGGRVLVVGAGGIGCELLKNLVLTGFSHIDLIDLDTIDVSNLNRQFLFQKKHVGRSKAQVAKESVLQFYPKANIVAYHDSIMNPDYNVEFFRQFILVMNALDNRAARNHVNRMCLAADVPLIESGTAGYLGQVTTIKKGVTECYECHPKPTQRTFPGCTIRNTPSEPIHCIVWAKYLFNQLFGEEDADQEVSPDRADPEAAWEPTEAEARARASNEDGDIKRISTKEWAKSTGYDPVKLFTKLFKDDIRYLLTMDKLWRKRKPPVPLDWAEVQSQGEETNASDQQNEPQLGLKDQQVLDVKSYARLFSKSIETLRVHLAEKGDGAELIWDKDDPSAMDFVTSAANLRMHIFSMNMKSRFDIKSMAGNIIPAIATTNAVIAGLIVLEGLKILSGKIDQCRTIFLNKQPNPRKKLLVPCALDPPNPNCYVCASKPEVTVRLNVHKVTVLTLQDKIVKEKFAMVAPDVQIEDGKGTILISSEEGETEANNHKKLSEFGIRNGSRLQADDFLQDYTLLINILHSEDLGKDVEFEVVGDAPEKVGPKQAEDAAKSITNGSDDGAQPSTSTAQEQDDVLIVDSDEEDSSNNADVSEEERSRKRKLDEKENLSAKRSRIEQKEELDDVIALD
Sequence of Intestinal-type alkaline phosphatase (Mus musculus, UniProt P24822) (P24822 whole entry): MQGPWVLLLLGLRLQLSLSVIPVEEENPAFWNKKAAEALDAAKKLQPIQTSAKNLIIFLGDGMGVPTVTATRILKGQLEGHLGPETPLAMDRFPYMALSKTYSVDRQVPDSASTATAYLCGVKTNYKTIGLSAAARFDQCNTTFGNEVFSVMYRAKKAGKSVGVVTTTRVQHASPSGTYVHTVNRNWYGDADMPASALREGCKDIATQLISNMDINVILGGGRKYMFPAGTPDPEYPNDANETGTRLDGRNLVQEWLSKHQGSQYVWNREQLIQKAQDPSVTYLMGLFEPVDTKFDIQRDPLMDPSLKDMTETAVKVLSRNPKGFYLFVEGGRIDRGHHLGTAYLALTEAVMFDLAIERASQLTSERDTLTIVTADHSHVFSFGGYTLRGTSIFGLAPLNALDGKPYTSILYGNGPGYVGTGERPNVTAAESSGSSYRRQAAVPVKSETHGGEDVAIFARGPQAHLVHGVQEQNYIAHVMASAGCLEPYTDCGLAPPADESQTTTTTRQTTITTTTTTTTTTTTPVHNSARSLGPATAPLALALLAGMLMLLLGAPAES
Sequence of Intestinal-type alkaline phosphatase (Homo sapiens, UniProt P09923) (P09923 whole entry): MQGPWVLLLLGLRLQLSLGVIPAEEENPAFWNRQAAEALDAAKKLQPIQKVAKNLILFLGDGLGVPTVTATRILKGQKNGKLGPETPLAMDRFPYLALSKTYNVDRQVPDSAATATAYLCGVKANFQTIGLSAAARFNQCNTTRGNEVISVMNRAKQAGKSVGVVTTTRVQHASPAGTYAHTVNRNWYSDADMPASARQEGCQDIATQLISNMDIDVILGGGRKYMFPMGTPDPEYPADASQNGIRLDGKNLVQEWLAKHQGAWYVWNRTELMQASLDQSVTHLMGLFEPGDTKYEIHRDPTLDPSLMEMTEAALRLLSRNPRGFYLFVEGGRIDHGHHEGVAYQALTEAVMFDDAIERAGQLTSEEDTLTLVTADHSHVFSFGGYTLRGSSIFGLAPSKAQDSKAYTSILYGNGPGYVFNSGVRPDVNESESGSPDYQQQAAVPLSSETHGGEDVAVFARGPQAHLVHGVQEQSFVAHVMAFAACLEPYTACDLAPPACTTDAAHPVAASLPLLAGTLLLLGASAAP

## Cc1nc(N2CCN(C(=O)c3ccco3)CC2)c2c3c(sc2n1)CC(C)CC3 (stereo not given)
Cannabinoid receptor 1 [1]
  IC50: > 32 µM (inactive)
INS1
  AC50: 6.56 µM (active)
Cannabinoid receptor 2 [2]
  EC50: 28.2 µM (inactive)
[3]
  IC50: > 32 µM (inactive)
Cannabinoid receptor 2 [4]
  IC50: > 32 µM (inactive)
[5]
  IC50: 0.342 µM (active)
Cannabinoid receptor 1 [6]
  EC50: > 32 µM (inactive)
[7]
  IC50: 0.527 µM (active)
[8]
  EC50: > 32 µM (inactive)
Cannabinoid receptor 1 [9]
  IC50: 3.17 µM (active)
Cannabinoid receptor 2 [10]
  EC50: > 32 µM (inactive)
[11]
  AC50: 50.5 µM (active)
[12]
  IC50: 0.653 µM (active)
Cannabinoid receptor 2 [13]
  IC50: > 32 µM (inactive)
[14]
  AC50: 2.33 µM (active)
[15]
  AC50: 4.08 µM (active)

## CN[C@@H](C)C(=O)NC1CCCN([C@@H](C)C(=O)NC2CCc3ccccc3C2)C1=O (stereo not given in full)
[16]
  IC50: > 100 µM (inactive)
[17]
  IC50: > 100 µM (inactive)

## Cc1ccc(NS(=O)(=O)c2ccc3nc(O)oc3c2)c(C)c1
[18]
  EC50: 60.3 µM (active)
[19]
  EC50: 58.7 µM (active)
[20]
  EC50: 62.7 µM (active)

## O=C(CN1C(=O)S/C(=C\c2ccccc2)C1=O)NNC(=O)c1ccccc1O
Albumin
  IC50: > 94.1 µM (inactive)
[21]
  IC50: > 119 µM (inactive)
SUMO-activating enzyme
  IC50: 38.2 µM (active)
Exodeoxyribonuclease V
  IC50: > 119 µM (inactive)
